Test results taken from paper PMC5735336, “Microwave-assisted synthesis and antitumor evaluation of a new series of thiazolylcoumarin derivatives” (EXCLI Journal, 2017).

How the values were obtained:
[1] = tested on: kidney fibroblast (COS-7) cancer cell line; assay: In vitro antitumor screening, MTT assay, COS-7; format: cell-based; settings: Chlorocebus aethiops, 50% inhibition of cell viability, COS-7 cell line
Experimental: (§1) The new analogs were tested for in vitro antitumor efficacy adopting the reported procedure (Mosmann, 1983[46]; Denizot and Lang, 1986[13]; Gerlier and Thomasset, 1986[21]).
(§2) In vitro antitumor screening of compounds 5a-t was carried out on cervical (Hela) and kidney fibroblast (COS-7) cancer cell lines in accord to MTT assay (Mosmann, 1983[46]; Denizot and Lang, 1986[13]; Gerlier and Thomasset, 1986[21]) and utilizing doxorubicin as a standard drug. The concentrations of the compounds that cause 50% inhibition of cell viability (IC50, µM) were calculated. […]
In vitro antitumor screening […]
(§3) HCT-116 (colon) and MCF-7 (breast) cancer cell lines adopting MTT assa y (Mosmann, 1983; Denizot and Lang, 1986; Gerlier and Thomasset, 1986) and usin g 5- fluorouracil as a reference antitumor agent. Cells were cultured in Roswell Park Memorial Institute (RPM I) 1640 medium wit h 10% fetal bovine serum, penicillin (100 units/mL) and streptomycin (100 µg/mL) at 37 ° C in an atmosphere of 5% CO 2 were added.
(§4) Cells were placed in 96-multiwell microtiter plates (10^4 cells/well), for 24 h rs at 37 °C and in an atmosphere of 5% CO2 before tr eatment with the compounds to allow attachment of the cells to the wall of the plate. The tested compounds were dissolved in DMSO and diluted with phosphate buffer saline (PBS) to obtain different concentrations. Tested compounds of dif-ferent concentrations were added to each well and cells were incubated with the compounds for 48 hrs at 37 °C and in an atmosphere of 5% CO2. All tests were performed in triplicates.
(§5) The treated cells were wash ed with PBS and 100 µL of 3 -(4,5-dimeth ylthiazol-2-yl )-2,5-diphe-n yltetrazolium bromide solution (MTT) (5 mg/m L MTT st ock in PBS diluted to 1 mg/ mL with 10% RPMI-1640 medium) was added. The 9 6 -multiwell plates were read b y microarra y read er Perkinelmer vector 3V multilabel counter model 1420 (Perkinelmer, Boston, MA) for optical densit y at 490 nm (Mosmann, 1983; Denizot and Lang, 1986; Gerlier and Thomasset, 1986).
(§6) The relative percenta ge cell viabilit y was calculate d from the following equation: […]
(§7) The relation between surviving fraction and drug concentration is plotted to get the survival curve for HepG2, HCT-116 and M CF-7 cancer cell lines . […]
(§8) Denizot F, Lang R. Rapid colorimetric assa y for cell growth and survival. Modifications to the tetrazolium dye procedure giving improved sensitivity an d reliability. J Immunol Methods. 1986;89:271-7.
(§9) Gerlier D, Thomasset T. Use of MTT colorimetric assa y to measure cell activation. J Immunol Methods. 1986; […]
(§10) Mosmann T. Rapid colorimetric assa y for cellular growth and survival: Application to proliferation and cytotox- […]
(§11) Oberling C, Gu erin M. The role of viruses in the production of cancer . Ad v Cancer Res. 1954;2:353-423.
(§12) Sheeja KR, Kuttan G, Kuttan R. C ytotox ic and antitumour activit y of Berberin. Amala Res Bull. 1997;17:73-6.

[2] = tested on: cervical (Hela) cancer cell line; assay: In vitro antitumor screening, MTT assay, Hela; format: cell-based; settings: Homo sapiens, 50% inhibition of cell viability
Experimental: as §1, §2
In vitro antitumor screening
as §3, with “Compounds 5a-t were screened for in vitro antitumor activity against HepG2 (liver), HCT-116” for “HCT-116”
as §4, §5, §6, §7, §8, §9, §10, §11, §12

SMILES	melting point [°C]	IC50 [2] [µM]	IC50 [1] [µM]
O=c1oc2ccccc2cc1-c1csc(NN=Cc2cc3ccc4cccc5ccc(c2)c3c45)n1 [5t, 3-(2-(2-(Pyren-2-ylmethylidene)hydrazino)thiazol-4-yl)-2H-chromen-2-one]	237 to 239	> 50	> 50
O=c1oc2ccccc2cc1-c1csc(NN=Cc2ccc(-c3ccccc3)cc2)n1 [5n, 3-(2-(2-((1,1'-Biphenyl)-4-ylmethylidene)-hydrazino)thiazol-4-yl)-2H-chromen-2-one]	198 to 200	> 50	> 50
O=c1oc2ccccc2cc1-c1csc(NN=Cc2ccc3ccccc3c2[N+](=O)[O-])n1 [5p, 3-(2-(2-((1-Nitronaphthalen-2-yl)methylidene)hydrazino)thiazol-4-yl)-2H-chromen-2-one]	211 to 213	> 50	> 50
O=c1oc2ccccc2cc1-c1csc(NN=Cc2c(F)cccc2Cl)n1 [5g, 3-(2-(2-(2-Chloro-6-fluorobenzylidene)hydrazino)thiazol-4-yl)-2H-chromen-2-one]	195 to 196	> 50	> 50
N#Cc1ccccc1C=NNc1nc(-c2cc3ccccc3oc2=O)cs1 [5b, 3-(2-(2-(2-Cyanobenzylidene)hydrazino)thiazol-4-yl)-2H-chromen-2-one]	219 to 220	> 50	> 50
Cc1cc(C=NNc2nc(-c3cc4ccccc4oc3=O)cs2)ccc1O [5k, 3-(2-(2-(4-Hydroxy-3-methylbenzylidene)-hydrazino)thiazol-4-yl)-2H-chromen-2-one]	193 to 194	> 50	> 50
COc1ccc(C=NNc2nc(-c3cc4ccccc4oc3=O)cs2)c(OC)c1 [5l, 3-(2-(2-(2,4-Dimethoxybenzylidene)-hydrazino)thiazol-4-yl)-2H-chromen-2-one]	219 to 220	> 50	> 50
O=c1oc2ccccc2cc1-c1csc(NN=Cc2ccccc2Br)n1 [5a, 3-(2-(2-(2-Bromobenzylidene)hydrazino)thiazol-4-yl)-2H-chromen-2-one]	212 to 213	> 50	> 50
Cc1cccc(C=NNc2nc(-c3cc4ccccc4oc3=O)cs2)c1 [5e, 3-(2-(2-(3-Methylbenzylidene)hydrazino)thiazol-4-yl)-2H-chromen-2-one]	190 to 191	> 50	> 50
O=c1oc2ccccc2cc1-c1csc(NN=Cc2ccc(C(F)(F)F)cc2)n1 [5d, 3-(2-(2-(4-(Trifluoromethyl)benzylidene)hydrazino)thiazol-4-yl)-2H-chromen-2-one]	189 to 190	> 50	> 50
N#Cc1cccc(C=NNc2nc(-c3cc4ccccc4oc3=O)cs2)c1 [5c, 3-(2-(2-(3-Cyanobenzylidene)hydrazino)thiazol-4-yl)-2H-chromen-2-one]	224 to 225	> 50	> 50
O=c1oc2ccccc2cc1-c1csc(NN=Cc2cc3ccccc3c3ccccc23)n1 [5s, 3-(2-(2-(Phenanthren-9-ylmethylidene)-hydrazino)thiazol-4-yl)-2H-chromen-2-one]	245 to 247	> 50	> 50

More lines, main results first:

melting point [°C]	IC50 [2] [µM]	SMILES	IC50 [1] [µM]
206 to 207	> 50	Cc1ccc(O)c(C=NNc2nc(-c3cc4ccccc4oc3=O)cs2)c1 [5j, 3-(2-(2-(2-Hydroxy-5-methylbenzylidene)hydrazino)thiazol-4-yl)-2H-chromen-2-one]	> 50
182 to 184	> 50	O=c1oc2ccccc2cc1-c1csc(NN=Cc2ccc(O)c(Br)c2)n1 [5i, 3-(2-(2-(3-Bromo-4-hydroxybenzylidene)hydrazino)thiazol-4-yl)-2H-chromen-2-one]	> 50
181 to 183	> 50	O=c1ccc2cc(C=NNc3nc(-c4cc5ccccc5oc4=O)cs3)ccc2o1 [5q, 6-((2-(4-(2-Oxo-2H-chromen-3-yl)thiazol-2-yl)hydrazono)methyl)-2H-chromen-2-one]	> 50
225 to 227	> 50	O=c1oc2ccccc2cc1-c1csc(NN=Cc2ccc3ccccc3c2)n1 [5o, 3-(2-(2-(Naphthalen-2-ylmethylidene)hydrazino)thiazol-4-yl)-2H-chromen-2-one]	> 50
–	2.05	COc1cccc2c1C(=O)c1c(O)c3c(c(O)c1C2=O)C[C@@](O)(C(=O)CO)C[C@@H]3O[C@H]1C[C@H](N)[C@H](O)[C@H](C)O1 [Doxorubicin, doxorubicin, reference compound]	3.04
